The structures appear in SMILES notation.

Results on one compound are retold here after publication PMC4396868 (Birth defects research. Part A, Clinical and molecular …, 2014).

The assay concerns the target bovine folate binding protein (bFBP) (Bos taurus, UniProt P02702). The assay is described as follows: competitive binding ELISA, displacement of folic acid-HRP, chemiluminescence. In general terms: In an ELISA, binding on a coated surface is turned into a signal by an enzyme label.

Chain of bovine folate binding protein (bFBP) (P02702 20-234): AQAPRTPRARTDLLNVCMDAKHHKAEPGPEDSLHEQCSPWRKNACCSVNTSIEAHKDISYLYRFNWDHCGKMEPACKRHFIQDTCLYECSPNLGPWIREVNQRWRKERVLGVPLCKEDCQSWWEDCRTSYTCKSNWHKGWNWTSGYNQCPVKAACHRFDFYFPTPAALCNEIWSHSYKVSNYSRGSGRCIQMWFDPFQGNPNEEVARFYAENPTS

As a reminder, the IC50 is the point on the concentration scale where inhibition reaches its midpoint. With `CCCC(CCC)C(=O)O` [Valproic acid], the half-inhibitory concentration (IC50) is 269 mM. That is a millimolar value.
